This note sets out measurements from paper PMC9364112, “A natural fusion of flavodiiron, rubredoxin, and rubredoxin oxidoreductase domains is a self-sufficient water-forming oxidase of Trichomonas vaginalis” (The Journal of Biological Chemistry, 2022).

Common to all, as to assay: LC-MS quantification of bound flavin
What all share (format): binding

The target of assay [1] is T1, TvFDPF3 (holoTvFDPF3) (Trichomonas vaginalis, UniProt A2E972).
T1 construct: gene TVAG_121610; full length, 871 residues, C-terminal His6 (pET30a, E. coli BL21 Star DE3), ~100 kDa on SDS-PAGE; FDP-core head-to-tail dimer; holo preparation with full FAD/FMN
T1 sequence (A2E972 1-871): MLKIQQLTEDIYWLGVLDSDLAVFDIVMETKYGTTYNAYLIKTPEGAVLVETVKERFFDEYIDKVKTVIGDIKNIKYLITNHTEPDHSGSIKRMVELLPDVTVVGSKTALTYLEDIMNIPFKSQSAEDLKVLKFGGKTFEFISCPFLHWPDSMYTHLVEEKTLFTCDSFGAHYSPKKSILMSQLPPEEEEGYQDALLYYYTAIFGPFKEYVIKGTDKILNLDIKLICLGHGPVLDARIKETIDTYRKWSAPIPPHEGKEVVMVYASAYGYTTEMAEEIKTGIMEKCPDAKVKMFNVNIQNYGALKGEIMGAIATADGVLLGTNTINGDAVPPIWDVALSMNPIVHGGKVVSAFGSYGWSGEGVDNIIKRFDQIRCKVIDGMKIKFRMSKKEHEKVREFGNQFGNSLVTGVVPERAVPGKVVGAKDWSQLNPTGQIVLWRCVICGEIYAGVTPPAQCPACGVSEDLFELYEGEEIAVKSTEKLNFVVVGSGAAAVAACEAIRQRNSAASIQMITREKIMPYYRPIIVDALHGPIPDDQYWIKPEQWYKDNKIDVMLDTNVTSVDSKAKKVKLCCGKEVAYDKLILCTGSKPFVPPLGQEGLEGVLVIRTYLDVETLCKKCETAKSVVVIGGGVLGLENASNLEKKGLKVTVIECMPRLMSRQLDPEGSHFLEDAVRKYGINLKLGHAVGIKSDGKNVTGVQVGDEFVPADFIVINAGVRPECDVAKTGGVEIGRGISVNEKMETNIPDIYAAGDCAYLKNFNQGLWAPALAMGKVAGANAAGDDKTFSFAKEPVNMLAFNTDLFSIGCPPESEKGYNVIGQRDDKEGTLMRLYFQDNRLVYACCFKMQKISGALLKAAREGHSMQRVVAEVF
The settings on record: co-purified cofactor, NROR domain. The text has this:
LC-MS quantification of bound flavin on TvFDPF3 (holoTvFDPF3)

Assay [2] deals with T2, TvFDPF1 (Trichomonas vaginalis, UniProt A2EP06).
T2 construct: gene TVAG_263800; full length, 871 residues, C-terminal His6 (pET30a, E. coli BL21 Star DE3); 272 kDa by gel filtration
T2 sequence (A2EP06 1-871): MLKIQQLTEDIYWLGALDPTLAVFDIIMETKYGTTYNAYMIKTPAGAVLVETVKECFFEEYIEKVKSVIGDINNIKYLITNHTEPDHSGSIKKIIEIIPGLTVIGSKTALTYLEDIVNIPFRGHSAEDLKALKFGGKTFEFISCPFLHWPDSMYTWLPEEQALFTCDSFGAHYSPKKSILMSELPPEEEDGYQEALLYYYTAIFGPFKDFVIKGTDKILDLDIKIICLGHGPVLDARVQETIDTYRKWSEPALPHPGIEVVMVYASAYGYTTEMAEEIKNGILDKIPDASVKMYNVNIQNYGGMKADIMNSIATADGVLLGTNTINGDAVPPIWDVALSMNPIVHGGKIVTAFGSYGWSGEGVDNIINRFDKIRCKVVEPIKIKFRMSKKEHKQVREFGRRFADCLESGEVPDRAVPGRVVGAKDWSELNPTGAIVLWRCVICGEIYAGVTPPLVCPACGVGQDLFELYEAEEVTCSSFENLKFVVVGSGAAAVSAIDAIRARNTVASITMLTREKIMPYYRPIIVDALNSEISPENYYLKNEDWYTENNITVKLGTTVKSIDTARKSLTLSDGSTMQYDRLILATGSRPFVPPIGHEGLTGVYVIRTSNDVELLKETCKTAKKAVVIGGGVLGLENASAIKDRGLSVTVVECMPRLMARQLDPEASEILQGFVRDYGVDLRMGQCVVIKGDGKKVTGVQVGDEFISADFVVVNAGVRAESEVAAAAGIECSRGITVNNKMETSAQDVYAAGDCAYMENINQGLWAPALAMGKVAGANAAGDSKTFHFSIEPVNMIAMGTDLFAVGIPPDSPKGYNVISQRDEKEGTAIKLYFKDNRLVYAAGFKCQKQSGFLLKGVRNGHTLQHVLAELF
The settings on record: co-purified cofactor. The text has this: LC-MS quantification of bound flavin on TvFDPF1

Assay [3] concerns the target T3, TvFDPF2 (Trichomonas vaginalis, UniProt A2EVX8).
T3 construct: gene TVAG_049830; full length, 871 residues, C-terminal His6 (pET30a, E. coli BL21 Star DE3); aggregation-prone; poor FAD and FMN occupancy
T3 sequence (A2EVX8 1-871): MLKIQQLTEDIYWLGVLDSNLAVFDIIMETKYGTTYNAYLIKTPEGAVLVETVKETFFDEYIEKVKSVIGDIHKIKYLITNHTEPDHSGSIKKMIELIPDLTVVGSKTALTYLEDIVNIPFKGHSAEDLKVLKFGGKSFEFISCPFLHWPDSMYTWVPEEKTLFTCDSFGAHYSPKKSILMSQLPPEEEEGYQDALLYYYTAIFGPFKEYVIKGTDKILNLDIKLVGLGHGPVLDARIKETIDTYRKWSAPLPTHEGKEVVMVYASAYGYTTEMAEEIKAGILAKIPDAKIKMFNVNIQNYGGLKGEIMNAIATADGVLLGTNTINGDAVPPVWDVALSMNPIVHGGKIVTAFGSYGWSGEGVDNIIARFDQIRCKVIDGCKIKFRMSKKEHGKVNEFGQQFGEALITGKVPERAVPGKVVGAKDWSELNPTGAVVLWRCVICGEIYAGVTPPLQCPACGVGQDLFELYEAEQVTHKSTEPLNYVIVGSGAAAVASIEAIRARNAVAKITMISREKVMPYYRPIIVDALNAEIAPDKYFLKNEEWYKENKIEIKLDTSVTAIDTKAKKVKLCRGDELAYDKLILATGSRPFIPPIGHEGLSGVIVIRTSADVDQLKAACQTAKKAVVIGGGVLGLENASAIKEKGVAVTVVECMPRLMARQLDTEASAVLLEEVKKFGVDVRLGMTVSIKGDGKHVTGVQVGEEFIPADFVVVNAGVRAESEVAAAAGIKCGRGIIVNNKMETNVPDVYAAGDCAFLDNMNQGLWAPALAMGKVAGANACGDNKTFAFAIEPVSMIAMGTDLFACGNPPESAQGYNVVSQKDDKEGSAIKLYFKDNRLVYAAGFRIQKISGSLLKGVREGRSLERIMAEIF
The following applies: co-purified cofactor, poorly occupied. The text has this: LC-MS quantification of bound flavin on TvFDPF2

As to `Cc1cc2nc3c(=O)[nH]c(=O)nc-3n(C[C@H](O)[C@H](O)[C@H](O)COP(=O)(O)OP(=O)(O)OC[C@H]3O[C@@H](n4cnc5c(N)ncnc54)[C@H](O)[C@@H]3O)c2cc1C` [FAD], the “FAD per protein monomer” value in assay [1] stood at 0.94 ± 0.09 mol per mol monomer; in assay [2], 1.02 ± 0.05 mol per mol monomer; in assay [3], 0.32 ± 0.05 mol per mol monomer.
